Paper PMC5218480 (PLoS ONE, 2017)

System: MV-4-11 cells
Assay: Gene expression microarray analysis (Affymetrix PrimeView) and GSEA
Assay type: cell-based, human
Parameters: RFU PODN (11730768_x_at) / Fold change /veh PODN (11730768_x_at) / RFU LINC00158 (11744669_a_at) / Fold change /veh LINC00158 (11744669_a_at) / RFU DUSP10 (11751237_a_at) / Fold change /veh DUSP10 (11751237_a_at) / RFU ID3 (11757404_x_at) / Fold change /veh ID3 (11757404_x_at) / RFU PLEKHG5 (11737974_s_at) / Fold change /veh PLEKHG5 (11737974_s_at) / RFU LRRC4B (11730491_at) / Fold change /veh LRRC4B (11730491_at) / RFU GIMAP4 (11747438_a_at) / Fold change /veh GIMAP4 (11747438_a_at) / RFU KRT8 (11758183_x_at) / Fold change /veh KRT8 (11758183_x_at) / RFU CNN1 (11734310_a_at) / Fold change /veh CNN1 (11734310_a_at) / RFU VPS37D (11726825_at) / Fold change /veh VPS37D (11726825_at) / RFU C10orf10 (11716522_x_at) / Fold change /veh C10orf10 (11716522_x_at) / RFU KIR2DL2 /// KIR2DL4 /// KIR2DL5A /// KIR2DL5B /// KIR2DS1 /// KIR2DS2 /// KIR2DS3 /// KIR2DS4 /// KIR3DL3 /// KIR3DL3 /// KIR3DS1 (11738374_at) / Fold change /veh KIR2DL2 /// KIR2DL4 /// KIR2DL5A /// KIR2DL5B /// KIR2DS1 /// KIR2DS2 /// KIR2DS3 /// KIR2DS4 /// KIR3DL3 /// KIR3DL3 /// KIR3DS1 (11738374_at) / RFU C1QL1 (11718748_at) / Fold change /veh C1QL1 (11718748_at) / RFU TMPRSS4 (11747572_a_at) / Fold change /veh TMPRSS4 (11747572_a_at) / RFU HAMP (11756126_x_at) / Fold change /veh HAMP (11756126_x_at) / RFU RNFT2 (11725882_a_at) / Fold change /veh RNFT2 (11725882_a_at) / RFU NR4A2 (11747474_a_at) / Fold change /veh NR4A2 (11747474_a_at) / RFU ABCC12 (11746883_a_at) / Fold change /veh ABCC12 (11746883_a_at) / RFU TMEM136 (11760407_x_at) / Fold change /veh TMEM136 (11760407_x_at) / RFU CLDN22 /// WWC2 (11732394_at) / Fold change /veh CLDN22 /// WWC2 (11732394_at) / RFU HLA-DPB1 (11760878_x_at) / Fold change /veh HLA-DPB1 (11760878_x_at) / RFU SPINT1 (11716480_a_at) / Fold change /veh SPINT1 (11716480_a_at) / RFU GAP43 (11754022_s_at) / Fold change /veh GAP43 (11754022_s_at) / RFU A4GNT (11735810_at) / Fold change /veh A4GNT (11735810_at) / RFU PRB3 (11715151_x_at) / Fold change /veh PRB3 (11715151_x_at) / RFU TUBB4B (11761932_at) / Fold change /veh TUBB4B (11761932_at) / RFU CAPN14 (11732068_a_at) / Fold change /veh CAPN14 (11732068_a_at) / RFU TMCC2 (11721928_a_at) / Fold change /veh TMCC2 (11721928_a_at) / RFU IRGQ (11745062_a_at) / Fold change /veh IRGQ (11745062_a_at) / RFU FAM174B (11720279_a_at) / Fold change /veh FAM174B (11720279_a_at) / RFU TMPRSS4 (11748680_a_at) / Fold change /veh TMPRSS4 (11748680_a_at) / RFU FAM212B (11763350_a_at) / Fold change /veh FAM212B (11763350_a_at) / RFU PLEKHG5 (11743358_a_at) / Fold change /veh PLEKHG5 (11743358_a_at) / RFU ZSCAN30 (11745921_a_at) / Fold change /veh ZSCAN30 (11745921_a_at) / RFU CMKLR1 (11741424_a_at) / Fold change /veh CMKLR1 (11741424_a_at) / RFU LOC101060620 /// MAPK8IP1 (11723275_at) / Fold change /veh LOC101060620 /// MAPK8IP1 (11723275_at) / RFU SPTSSB (11747773_x_at) / Fold change /veh SPTSSB (11747773_x_at) / RFU PRSS12 (11739890_at) / Fold change /veh PRSS12 (11739890_at) / RFU BIN1 (11741810_x_at) / Fold change /veh BIN1 (11741810_x_at) / RFU WNT11 (11732464_a_at) / Fold change /veh WNT11 (11732464_a_at) / RFU C10orf10 (11716521_a_at) / Fold change /veh C10orf10 (11716521_a_at) / RFU C5orf56 (11738089_at) / Fold change /veh C5orf56 (11738089_at) / RFU CYB561 (11721691_x_at) / Fold change /veh CYB561 (11721691_x_at) / RFU ANKRD19P (11752326_a_at) / Fold change /veh ANKRD19P (11752326_a_at) / RFU OR2T12 /// OR2T33 /// OR2T8 (11738714_s_at) / Fold change /veh OR2T12 /// OR2T33 /// OR2T8 (11738714_s_at) / RFU VCAN (11748164_a_at) / Fold change /veh VCAN (11748164_a_at) / RFU JSRP1 (11732532_at) / Fold change /veh JSRP1 (11732532_at) / RFU KRTAP10-11 (11738290_x_at) / Fold change /veh KRTAP10-11 (11738290_x_at) / RFU MYO3A (11730013_a_at) / Fold change /veh MYO3A (11730013_a_at) / RFU EBF3 (11725865_a_at) / Fold change /veh EBF3 (11725865_a_at) / RFU CAMK2N1 (11719241_x_at) / Fold change /veh CAMK2N1 (11719241_x_at) / RFU C5orf56 (11738088_a_at) / Fold change /veh C5orf56 (11738088_a_at) / RFU OLFML3 (11715873_a_at) / Fold change /veh OLFML3 (11715873_a_at) / RFU LOC100653217 /// NTM (11731650_a_at) / Fold change /veh LOC100653217 /// NTM (11731650_a_at) / RFU MAPK11 (11762145_a_at) / Fold change /veh MAPK11 (11762145_a_at) / RFU FIZ1 (11724087_x_at) / Fold change /veh FIZ1 (11724087_x_at) / RFU OASL (11726364_x_at) / Fold change /veh OASL (11726364_x_at) / RFU SOX15 (11748057_x_at) / Fold change /veh SOX15 (11748057_x_at) / RFU CD79A (11719716_a_at) / Fold change /veh CD79A (11719716_a_at) / RFU HIST1H1D (11736915_at) / Fold change /veh HIST1H1D (11736915_at) / RFU CASKIN2 (11723855_a_at) / Fold change /veh CASKIN2 (11723855_a_at) / RFU LOC730098 (11760151_x_at) / Fold change /veh LOC730098 (11760151_x_at) / RFU OR4N2 (11742367_at) / Fold change /veh OR4N2 (11742367_at) / RFU PRRT2 (11749266_a_at) / Fold change /veh PRRT2 (11749266_a_at) / RFU SNX32 (11753110_a_at) / Fold change /veh SNX32 (11753110_a_at) / RFU CDHR5 (11726645_a_at) / Fold change /veh CDHR5 (11726645_a_at) / RFU RCAN1 (11760418_a_at) / Fold change /veh RCAN1 (11760418_a_at) / RFU FAM167A (11723789_a_at) / Fold change /veh FAM167A (11723789_a_at) / RFU FAM26E (11764081_at) / Fold change /veh FAM26E (11764081_at) / RFU ISYNA1 (11749810_s_at) / Fold change /veh ISYNA1 (11749810_s_at) / RFU ACY1 (11761880_at) / Fold change /veh ACY1 (11761880_at) / RFU 11764098_at / Fold change /veh 11764098_at / RFU SAMD14 (11745864_x_at) / Fold change /veh SAMD14 (11745864_x_at) / RFU NPB (11741838_a_at) / Fold change /veh NPB (11741838_a_at) / RFU TMPRSS6 (11731388_a_at) / Fold change /veh TMPRSS6 (11731388_a_at) / RFU KRTAP10-2 (11738614_at) / Fold change /veh KRTAP10-2 (11738614_at) / RFU ARHGAP8 /// PRR5-ARHGAP8 (11727945_x_at) / Fold change /veh ARHGAP8 /// PRR5-ARHGAP8 (11727945_x_at) / RFU KRTAP5-7 /// NADSYN1 (11734609_at) / Fold change /veh KRTAP5-7 /// NADSYN1 (11734609_at) / RFU RASL12 (11751679_a_at) / Fold change /veh RASL12 (11751679_a_at) / RFU CDKN2B (11736163_a_at) / Fold change /veh CDKN2B (11736163_a_at) / RFU PRF1 (11729649_at) / Fold change /veh PRF1 (11729649_at) / RFU, ZNF638 /// ZNF638-IT1 / Fold change vs veh, ZNF638 /// ZNF638-IT1 / RFU, PANK3 / Fold change vs veh, PANK3 / RFU, SH3YL1 / Fold change vs veh, SH3YL1 / RFU, ZEB2 / Fold change vs veh, ZEB2 / RFU, NRIP1 / Fold change vs veh, NRIP1 / RFU, PTTG1IP / Fold change vs veh, PTTG1IP / RFU, CAPN2 / Fold change vs veh, CAPN2 / RFU, MED14 / Fold change vs veh, MED14 / RFU, SNORA58 / Fold change vs veh, SNORA58 / RFU, C1orf63 / Fold change vs veh, C1orf63 / RFU, LRRFIP1 / Fold change vs veh, LRRFIP1 / RFU, NDUFAF7 / Fold change vs veh, NDUFAF7 / RFU, SLC12A2 / Fold change vs veh, SLC12A2 / RFU, IBTK / Fold change vs veh, IBTK / RFU, ESF1 / Fold change vs veh, ESF1 / Fold change vs veh, TMEM50B / RFU, TAOK1 / Fold change vs veh, TAOK1 / RFU, ACBD3 / Fold change vs veh, ACBD3 / RFU, TMA16 / Fold change vs veh, TMA16 / RFU, RWDD3 / Fold change vs veh, RWDD3 / RFU, BCAT1 / Fold change vs veh, BCAT1 / RFU, EDEM3 / Fold change vs veh, EDEM3 / RFU, TMEM33 / Fold change vs veh, TMEM33 / RFU, WDR75 / Fold change vs veh, WDR75 / RFU, AHCTF1 / Fold change vs veh, AHCTF1 / RFU, TFRC / Fold change vs veh, TFRC / RFU, ZDHHC17 / Fold change vs veh, ZDHHC17 / RFU, NOM1 / Fold change vs veh, NOM1 / RFU, ARL8B / Fold change vs veh, ARL8B / RFU, ZBTB11 / Fold change vs veh, ZBTB11 / RFU, TAMM41 / Fold change vs veh, TAMM41 / RFU, KIAA1704 /// LOC100996395 / Fold change vs veh, KIAA1704 /// LOC100996395 / RFU, ING1 / Fold change vs veh, ING1 / RFU, TRMT61B / Fold change vs veh, TRMT61B / RFU, FUBP3 / Fold change vs veh, FUBP3 / RFU, TP53 / Fold change vs veh, TP53 / RFU, TNKS2 / Fold change vs veh, TNKS2 / RFU, ZFP14 / Fold change vs veh, ZFP14 / RFU, ACTR2 / Fold change vs veh, ACTR2 / RFU, PPP3R1 / Fold change vs veh, PPP3R1 / RFU, PIK3R1 / Fold change vs veh, PIK3R1 / RFU, HNRNPA1 / Fold change vs veh, HNRNPA1 / RFU, RNF170 / Fold change vs veh, RNF170 / RFU, ZNF28 / Fold change vs veh, ZNF28 / RFU, RNGTT / Fold change vs veh, RNGTT / RFU, OGT / Fold change vs veh, OGT / RFU, BRD1 / Fold change vs veh, BRD1 / RFU, MARS / Fold change vs veh, MARS / RFU, ZNF655 / Fold change vs veh, ZNF655 / RFU, FAHD1 / Fold change vs veh, FAHD1 / RFU, BDP1 / Fold change vs veh, BDP1 / RFU, LRRCC1 / Fold change vs veh, LRRCC1 / RFU, ARID1A / Fold change vs veh, ARID1A / RFU, ZNF146 / Fold change vs veh, ZNF146 / RFU, ZNF330 / Fold change vs veh, ZNF330 / RFU, GPN3 / Fold change vs veh, GPN3 / RFU, C9orf123 / Fold change vs veh, C9orf123 / RFU, N4BP2L2 / Fold change vs veh, N4BP2L2 / RFU, ARFIP1 / Fold change vs veh, ARFIP1 / RFU, FAM179B / Fold change vs veh, FAM179B / RFU, BCL10 / Fold change vs veh, BCL10 / RFU, UHRF1BP1L / Fold change vs veh, UHRF1BP1L / RFU, BET1 / Fold change vs veh, BET1 / RFU, CNOT2 / Fold change vs veh, CNOT2 / RFU, ZNF268 / Fold change vs veh, ZNF268 / Fold change vs veh, ZNF507 / RFU, DGCR2 / Fold change vs veh, DGCR2 / RFU, WDSUB1 / Fold change vs veh, WDSUB1 / Fold change vs veh, HSP90B1 /// MIR3652 / RFU, ADSS / Fold change vs veh, ADSS / RFU, GK / Fold change vs veh, GK / RFU, ZNF148 / Fold change vs veh, ZNF148 / RFU, TAF9 / Fold change vs veh, TAF9 / RFU, SLC1A5 / Fold change vs veh, SLC1A5 / RFU, SLMO2 / Fold change vs veh, SLMO2 / RFU, ABCC4 / Fold change vs veh, ABCC4 / RFU, LOC101060439 /// RAP1B / Fold change vs veh, LOC101060439 /// RAP1B / RFU, RFX7 / Fold change vs veh, RFX7 / RFU, GTPBP10 / Fold change vs veh, GTPBP10 / RFU, CNEP1R1 / Fold change vs veh, CNEP1R1 / RFU, BIVM-ERCC5 /// ERCC5 / Fold change vs veh, BIVM-ERCC5 /// ERCC5 / RFU, ILF3 / Fold change vs veh, ILF3 / RFU 11762660_at / Fold change /veh 11762660_at / RFU VCAN (11757783_s_at) / Fold change /veh VCAN (11757783_s_at) / RFU DDX43 (11728927_at) / Fold change /veh DDX43 (11728927_at) / RFU KRT8 (11758188_x_at) / Fold change /veh KRT8 (11758188_x_at) / RFU NKD1 (11759106_at) / Fold change /veh NKD1 (11759106_at) / RFU SRD5A1 (11742802_a_at) / Fold change /veh SRD5A1 (11742802_a_at) / RFU TPSAB1 /// TPSB2 (11721975_s_at) / Fold change /veh TPSAB1 /// TPSB2 (11721975_s_at) / RFU GSTM3 (11746129_a_at) / Fold change /veh GSTM3 (11746129_a_at) / RFU IL23R (11737362_x_at) / Fold change /veh IL23R (11737362_x_at) / RFU TMEM51 (11727254_a_at) / Fold change /veh TMEM51 (11727254_a_at) / RFU PIWIL2 (11732686_x_at) / Fold change /veh PIWIL2 (11732686_x_at) / RFU ORM1 (11744905_x_at) / Fold change /veh ORM1 (11744905_x_at) / RFU CCDC152 (11743942_at) / Fold change /veh CCDC152 (11743942_at) / RFU ECM1 (11717891_a_at) / Fold change /veh ECM1 (11717891_a_at) / RFU IL23R (11748794_a_at) / Fold change /veh IL23R (11748794_a_at) / RFU TNFAIP8L3 (11732012_x_at) / Fold change /veh TNFAIP8L3 (11732012_x_at) / RFU MBOAT4 (11741988_at) / Fold change /veh MBOAT4 (11741988_at) / RFU 11764193_at / Fold change /veh 11764193_at / RFU TMEM53 (11763286_at) / Fold change /veh TMEM53 (11763286_at) / RFU MAGEB2 (11727129_at) / Fold change /veh MAGEB2 (11727129_at) / RFU TMEM200A (11744735_a_at) / Fold change /veh TMEM200A (11744735_a_at) / RFU CCDC152 (11751479_a_at) / Fold change /veh CCDC152 (11751479_a_at) / RFU FAM211A (11726209_a_at) / Fold change /veh FAM211A (11726209_a_at) / RFU RGS16 (11746705_a_at) / Fold change /veh RGS16 (11746705_a_at) / RFU VCAN (11755009_s_at) / Fold change /veh VCAN (11755009_s_at) / RFU RHOB (11743442_s_at) / Fold change /veh RHOB (11743442_s_at) / RFU RGS16 (11720943_a_at) / Fold change /veh RGS16 (11720943_a_at) / RFU RGS16 (11720944_at) / Fold change /veh RGS16 (11720944_at) / RFU, VPS4B / Fold change vs veh, VPS4B / RFU, CREB1 / Fold change vs veh, CREB1 / RFU, DNAJC13 / Fold change vs veh, DNAJC13 / RFU, GNAQ / Fold change vs veh, GNAQ / RFU, CDK5R1 / Fold change vs veh, CDK5R1 / RFU, ZRANB3 / Fold change vs veh, ZRANB3 / RFU, CUL4A / Fold change vs veh, CUL4A / RFU, CCNY / Fold change vs veh, CCNY / RFU, UFL1 / Fold change vs veh, UFL1 / RFU, COG3 / Fold change vs veh, COG3 / RFU, DIAPH2 / Fold change vs veh, DIAPH2 / RFU, SKA2 / Fold change vs veh, SKA2 / RFU, AFF3 / Fold change vs veh, AFF3 / RFU, LMF1 / Fold change vs veh, LMF1 / RFU, IPO11 / Fold change vs veh, IPO11 / RFU, DFFB / Fold change vs veh, DFFB / RFU, FOXP1 / Fold change vs veh, FOXP1 / RFU, CARD8 / Fold change vs veh, CARD8 / RFU, STRN3 / Fold change vs veh, STRN3 / RFU, ADK / Fold change vs veh, ADK / RFU, RASSF2 / Fold change vs veh, RASSF2 / RFU, WIPF1 / Fold change vs veh, WIPF1 / RFU, LARP1B / Fold change vs veh, LARP1B / RFU, RASA1 / Fold change vs veh, RASA1 / RFU, RB1 / Fold change vs veh, RB1 / RFU, PPFIA1 / Fold change vs veh, PPFIA1 / RFU, MAT2A / Fold change vs veh, MAT2A / RFU, CCT5 / Fold change vs veh, CCT5 / RFU, WDR92 / Fold change vs veh, WDR92 / RFU, CUX1 / Fold change vs veh, CUX1 / RFU, TTC7A / Fold change vs veh, TTC7A / RFU, TMEM135 / Fold change vs veh, TMEM135 / RFU, DEPTOR / Fold change vs veh, DEPTOR / RFU, CPM / Fold change vs veh, CPM / RFU, DNAJB6 / Fold change vs veh, DNAJB6 / RFU, CACNA2D3 / Fold change vs veh, CACNA2D3 / RFU, DTX4 / Fold change vs veh, DTX4 / RFU, TFCP2 / Fold change vs veh, TFCP2 / RFU, GMCL1 /// GMCL1P1 / Fold change vs veh, GMCL1 /// GMCL1P1 / RFU, AEBP2 / Fold change vs veh, AEBP2 / RFU, SNHG1 /// SNORD22 /// SNORD25 /// SNORD26 /// SNORD27 /// SNORD28 /// SNORD29 /// SNORD31 / Fold change vs veh, SNHG1 /// SNORD22 /// SNORD25 /// SNORD26 /// SNORD27 /// SNORD28 /// SNORD29 /// SNORD31 / Fold change (Aza/veh), C12orf56 (ProbeSet 11735607_a_at) / Fold change (ACY-1035/veh), C12orf56 (ProbeSet 11735607_a_at) / Fold change (Aza/veh), FGFR1OP (ProbeSet 11751329_s_at) / Fold change (ACY-1035/veh), FGFR1OP (ProbeSet 11751329_s_at) / Fold change (Aza/veh), VPS36 (ProbeSet 11739960_a_at) / Fold change (ACY-1035/veh), VPS36 (ProbeSet 11739960_a_at) / RFU SYPL1 (11715823_x_at) / Fold change /veh SYPL1 (11715823_x_at) / RFU IGFBP7 (11715501_s_at) / Fold change /veh IGFBP7 (11715501_s_at) / RFU REEP3 (11722064_at) / Fold change /veh REEP3 (11722064_at) / RFU IGLL1 (11728026_x_at) / Fold change /veh IGLL1 (11728026_x_at): dose or concentration left out as unconfirmed
Conditions: MV-4-11 cells, 48 hours

For `Nc1ccc(-c2cccs2)cc1NC(=O)c1ccc2c(c1)cc(C1CC1)n2CCN1CCOCC1` [ACY-1035], the “Fold change /veh DDX43 (11728927_at)” value was 1.03.
